Test results taken from PubChem BioAssay AID248 (DTP/NCI, 2004).
Inconclusive results and toxic doses are left out. Cut-off read from the data, not from the text of the source: active = T/C of 150% or more; inactive = T/C below 125%.

Tested on: L1210 leukemia ip in BDF1 mice, survival T/C
Assay: NCI In Vivo Anticancer Drug Screen. Data for tumor model L1210 Leukemia (intraperitoneal) in B6D2F1 (BDF1) mice
Details: endpoint: mean survival time, higher = longer survival
How it was run: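 Transplantable tumor model; survival measured in treated vs vehicle control mice. Value = treated/control.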

[1] = dose: 100.0 mg/kg/injection, schedule: Q01DX009 (ip), vehicle: saline
[2] = dose: 100.0 mg/kg/injection, schedule: Q04DX003 (ip), vehicle: saline
[3] = dose: 200.0 mg/kg/injection, schedule: Q01DX009 (ip), vehicle: saline
[4] = dose: 200.0 mg/kg/injection, schedule: Q04DX003 (ip), vehicle: saline
[5] = dose: 400.0 mg/kg/injection, schedule: Q01DX009 (ip), vehicle: saline
[6] = dose: 400.0 mg/kg/injection, schedule: Q04DX003 (ip), vehicle: saline
[7] = dose: 100.0 mg/kg/injection, schedule: Q01DX009 (ip), vehicle: Klucel (hydroxypropylcellulose) (HPC)
[8] = dose: 100.0 mg/kg/injection, schedule: Q04DX003 (ip), vehicle: Klucel (hydroxypropylcellulose) (HPC)
[9] = dose: 200.0 mg/kg/injection, schedule: Q01DX009 (ip), vehicle: Klucel (hydroxypropylcellulose) (HPC)
[10] = dose: 200.0 mg/kg/injection, schedule: Q04DX003 (ip), vehicle: Klucel (hydroxypropylcellulose) (HPC)
[11] = dose: 400.0 mg/kg/injection, schedule: Q01DX009 (ip), vehicle: Klucel (hydroxypropylcellulose) (HPC)
[12] = dose: 400.0 mg/kg/injection, schedule: Q04DX003 (ip), vehicle: Klucel (hydroxypropylcellulose) (HPC)
[13] = dose: 20.0 mg/kg/injection, schedule: Q01DX001 (ip), vehicle: saline
[14] = dose: 40.0 mg/kg/injection, schedule: Q01DX001 (ip), vehicle: saline
[15] = dose: 80.0 mg/kg/injection, schedule: Q01DX001 (ip), vehicle: saline
[16] = dose: 100.0 mg/kg/injection, schedule: Q04DX003 (ip), vehicle: saline with Tween-80
[17] = dose: 200.0 mg/kg/injection, schedule: Q04DX003 (ip), vehicle: saline with Tween-80
[18] = dose: 400.0 mg/kg/injection, schedule: Q04DX003 (ip), vehicle: saline with Tween-80
[19] = dose: 100.0 mg/kg/injection, schedule: Q01DX001 (ip), vehicle: saline
[20] = dose: 200.0 mg/kg/injection, schedule: Q01DX001 (ip), vehicle: saline
[21] = dose: 400.0 mg/kg/injection, schedule: Q01DX001 (ip), vehicle: saline

Measured: T/C

O=C1CCC(=O)N1SC(Cl)(Cl)Cl
inactive: dose: 7.5 mg/kg/injection, schedule: Q01DX009 (ip), vehicle: saline 101 % of control | dose: 15.0 mg/kg/injection, schedule: Q01DX009 (ip), vehicle: saline 101 % of control | dose: 30.0 mg/kg/injection, schedule: Q01DX009 (ip), vehicle: saline 106 % of control | dose: 45.0 mg/kg/injection, schedule: Q01DX009 (ip), vehicle: saline 99 % of control | dose: 70.0 mg/kg/injection, schedule: Q01DX009 (ip), vehicle: saline 92 % of control | dose: 100.0 mg/kg/injection, schedule: Q01DX001 (ip), vehicle: other 103 % of control | dose: 100.0 mg/kg/injection, schedule: Q04DX002 (ip), vehicle: saline with Tween-80 87 % of control | dose: 105.0 mg/kg/injection, schedule: Q01DX009 (ip), vehicle: saline 89 % of control | dose: 200.0 mg/kg/injection, schedule: Q01DX001 (ip), vehicle: other 95 % of control | dose: 240.0 mg/kg/injection, schedule: Q01DX009 (ip), vehicle: saline 88 % of control | dose: 300.0 mg/kg/injection, schedule: Q01DX001 (ip), vehicle: other 98 % of control | dose: 360.0 mg/kg/injection, schedule: Q01DX009 (ip), vehicle: saline 86 % of control

CCc1cc(CC)c(CC)c(CC)c1
inactive: [1] 100 % of control | [2] 107 % of control | [3] 87 % of control | [4] 105 % of control | [5] 108 % of control | [6] 91 % of control

CCCCOc1ccc(OC(=O)Nc2cc(Cl)ccc2OC)cc1
inactive: [7] 105 % of control | [8] 96 % of control | [9] 97 % of control | [10] 97 % of control | [11] 113 % of control | [12] 97 % of control

CC(Cc1ccccc1)NC(=O)CCNNC(=O)c1ccncc1 (stereo unspecified)
inactive: dose: 12.5 mg/kg/injection, schedule: Q01DX009 (ip), vehicle: Klucel (hydroxypropylcellulose) (HPC) 96 % of control | dose: 25.0 mg/kg/injection, schedule: Q01DX009 (ip), vehicle: Klucel (hydroxypropylcellulose) (HPC) 100 % of control | dose: 50.0 mg/kg/injection, schedule: Q01DX009 (ip), vehicle: Klucel (hydroxypropylcellulose) (HPC) 103 % of control | dose: 50.0 mg/kg/injection, schedule: Q04DX003 (ip), vehicle: Klucel (hydroxypropylcellulose) (HPC) 98 % of control | [7] 100 % of control | [8] 96 % of control | [9] 91 % of control | [10] 88 % of control

c1ccc2snnc2c1
inactive: [13] 102 % of control | [14] 104 % of control | [15] 98 % of control

NC(N)=NC(N)=Nc1ccc2ccccc2c1[N+](=O)[O-]
inactive: [7] 94 % of control | [8] 97 % of control | [9] 100 % of control | [10] 100 % of control | [11] 98 % of control | [12] 95 % of control

O=[N+]([O-])c1cccc(/C(Cl)=C/CCl)c1
inactive: dose: 50.0 mg/kg/injection, schedule: Q01DX001 (ip), vehicle: Klucel (hydroxypropylcellulose) (HPC) 98 % of control | dose: 100.0 mg/kg/injection, schedule: Q01DX001 (ip), vehicle: Klucel (hydroxypropylcellulose) (HPC) 101 % of control | dose: 200.0 mg/kg/injection, schedule: Q01DX001 (ip), vehicle: Klucel (hydroxypropylcellulose) (HPC) 97 % of control

COc1cc(C(=O)OCCCN2CCOCC2)cc(OC)c1OC
inactive: dose: 25.0 mg/kg/injection, schedule: Q01DX009 (ip), vehicle: saline 107 % of control | dose: 25.0 mg/kg/injection, schedule: Q04DX003 (ip), vehicle: saline 106 % of control | dose: 50.0 mg/kg/injection, schedule: Q01DX009 (ip), vehicle: saline 92 % of control | dose: 50.0 mg/kg/injection, schedule: Q04DX003 (ip), vehicle: saline 101 % of control | [1] 92 % of control | [2] 98 % of control | [3] 105 % of control | [4] 98 % of control | [5] 100 % of control | [6] 95 % of control

CCCCCCCCCCCCCCCCCC(=O)NCC[N+](C)(C)C
inactive: dose: 5.0 mg/kg/injection, schedule: Q01DX001 (ip), vehicle: saline 98 % of control | dose: 10.0 mg/kg/injection, schedule: Q01DX001 (ip), vehicle: saline 96 % of control | [13] 98 % of control | [14] 93 % of control | [15] 102 % of control

CCCCCCCCCCCCCCCCCCn1cnc2c(=S)nc[nH]c21
inactive: dose: 12.5 mg/kg/injection, schedule: Q01DX005 (ip), vehicle: other 106 % of control | dose: 25.0 mg/kg/injection, schedule: Q01DX005 (ip), vehicle: other 98 % of control | dose: 50.0 mg/kg/injection, schedule: Q01DX005 (ip), vehicle: other 95 % of control | dose: 100.0 mg/kg/injection, schedule: Q01DX005 (ip), vehicle: other 104 % of control | dose: 200.0 mg/kg/injection, schedule: Q01DX005 (ip), vehicle: other 90 % of control

CNC(=O)NC
inactive: [2] 94 % of control | [4] 102 % of control | [6] 94 % of control

Cn1c(=O)c2c(ncn2CCCCO)n(C)c1=O
inactive: [1] 94 % of control | [3] 95 % of control | [5] 92 % of control

O=C1c2cccc3cccc(c23)C1(Br)Br
inactive: dose: 75.0 mg/kg/injection, schedule: Q01DX001 (ip), vehicle: other 101 % of control | dose: 150.0 mg/kg/injection, schedule: Q01DX001 (ip), vehicle: other 104 % of control

O=C(NCCc1ccccc1)c1ccccc1
inactive: [16] 112 % of control | [17] 102 % of control | [18] 100 % of control

CC1CCc2cc3c(cc2C1=O)sc1ccccc13 (stereo unspecified)
inactive: [19] 108 % of control | [20] 105 % of control | [21] 89 % of control

NC(N)=Nc1ccc(C(=O)Oc2ccc([N+](=O)[O-])cc2)cc1
inactive: [16] 108 % of control | [17] 94 % of control | [18] 89 % of control

Cc1ncc(C(O)c2ccc(Cl)cc2)n1Cc1ccccc1 (stereo unspecified)
inactive: [8] 100 % of control | [10] 94 % of control | [12] 104 % of control

CNc1nc(N)nc2c1nc(Cl)n2C1OC(CO)C(O)C1O (stereo unspecified)
inactive: [19] 100 % of control | [20] 92 % of control | [21] 96 % of control

O=S(=O)(O)c1cc(Cl)cc(N=Nc2ccc(O)cc2O)c1O
inactive: dose: 50.0 mg/kg/injection, schedule: Q01DX001 (ip), vehicle: saline 98 % of control | [19] 98 % of control | [20] 104 % of control | [21] 98 % of control

Cc1ccc(S(=O)(=O)N(C)c2ccc(C#N)c(Cl)c2Cl)cc1
inactive: [16] 98 % of control | [17] 96 % of control | [18] 98 % of control

CC(=O)OCCc1ccc(F)cc1
inactive: dose: 100.0 mg/kg/injection, schedule: Q04DX002 (ip), vehicle: saline 102 % of control | dose: 200.0 mg/kg/injection, schedule: Q04DX002 (ip), vehicle: saline 105 % of control | dose: 400.0 mg/kg/injection, schedule: Q04DX002 (ip), vehicle: saline 102 % of control

CCP(=S)(CC)CCCCP(=S)(CC)CC
inactive: dose: 100.0 mg/kg/injection, schedule: Q01DX009 (ip), vehicle: saline with Tween-80 94 % of control | dose: 200.0 mg/kg/injection, schedule: Q01DX009 (ip), vehicle: saline with Tween-80 89 % of control | dose: 400.0 mg/kg/injection, schedule: Q01DX009 (ip), vehicle: saline with Tween-80 86 % of control

CCCCS(=O)C1(CCC)OC1(c1ccccc1)c1ccccc1 (stereo unspecified)
inactive: dose: 100.0 mg/kg/injection, schedule: Q03DX002 (ip), vehicle: other 121 % of control | dose: 200.0 mg/kg/injection, schedule: Q03DX002 (ip), vehicle: other 102 % of control | dose: 400.0 mg/kg/injection, schedule: Q03DX002 (ip), vehicle: other 96 % of control

NC(N)=NCCN1C(c2ccccc2)C1c1ccccc1 (stereo unspecified)
inactive: dose: 12.5 mg/kg/injection, schedule: Q04DX002 (ip), vehicle: saline with Tween-80 107 % of control | dose: 25.0 mg/kg/injection, schedule: Q04DX002 (ip), vehicle: saline with Tween-80 103 % of control | dose: 50.0 mg/kg/injection, schedule: Q04DX002 (ip), vehicle: saline with Tween-80 100 % of control
